From ChEMBL document CHEMBL1201862, “PubChem BioAssay data set” (2004) come the findings set out here.

Among the test systems are HCT-15; UO-31; Malme-3M; CAKI-1; SK-MEL-5; NCI-H226; KM-20L2; SK-MEL-28; A549; SNB-19; SK-OV-3; EKVX; KM12; SN12C; TK-10; MDA-N; HCC 2998; SF-295; MDA-MB-435; HOP-62.
Experiment in all cases: NCI tumour cell line growth inhibition, 48 h

The structures appear in SMILES notation.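 Exposure lasted 48 hours, with cells grown in 96-well plates and compounds tested at five concentrations. Abbreviation: GI50, concentration required for 50% inhibition of growth.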 Active and inactive are the calls of the source. Rule as the data show it: active = GI50 up to about 1.1 µM and inactive = higher.

Regarding `COc1ccccc1/C=C(\NC(=O)c1ccccc1)c1nc2ccc(Cl)cc2[nH]1`, the GI50 with HCT-15 is 30.3 µM; with UO-31, 18 µM (inactive); in the assay with Malme-3M it was 47.8 µM (inactive); with CAKI-1 it was 21.4 µM (inactive); in the assay on SK-MEL-5, 17.3 µM (inactive); in the assay with NCI-H226, 23.3 µM (inactive). For the same compound, the GI50 was 48.8 µM (inactive) in the assay on KM-20L2; 27.1 µM (inactive) with SK-MEL-28; 19.6 µM (inactive) in the assay on A549; 29.5 µM (inactive) in the assay with SNB-19; 37.2 µM (inactive) with SK-OV-3; 29.5 µM (inactive) in the assay on EKVX. In addition, the GI50 is 23.7 µM (inactive) in the assay on KM12, 35.2 µM (inactive) in the assay with SN12C and 29.2 µM (inactive) in the assay on TK-10.
Turning to `COc1ccc(OC)c(CSc2ccc(OC)c(OC)c2)c1`, the GI50 in the assay on HCT-15 is greater than 73.8 µM; with UO-31 it was 55.3 µM (inactive); in the assay on Malme-3M it was > 100 µM (inactive); in the assay on CAKI-1, > 100 µM (inactive); in the assay with SK-MEL-5 it was 45.4 µM (inactive); in the assay on NCI-H226, > 71.4 µM (inactive). For the same compound, the GI50 in the assay on MDA-N is > 77.6 µM (inactive); in the assay on SK-MEL-28, > 100 µM (inactive); in the assay on HCC 2998, 97.1 µM (inactive); in the assay on SF-295, > 81.5 µM (inactive); in the assay with A549, > 79.4 µM (inactive); in the assay on MDA-MB-435, > 79.4 µM (inactive). The GI50 was > 100 µM (inactive) in the assay with HOP-62; > 100 µM (inactive) with SNB-19; > 100 µM (inactive) with SK-OV-3; 62.4 µM (inactive) in the assay on EKVX; > 100 µM (inactive) with KM12; > 100 µM (inactive) with SN12C. Moreover, the GI50 with TK-10 was > 100 µM (inactive).
`[O-][n+]1c2cc(CBr)c(CBr)cc2[n+]([O-])c2c(O)cccc21`: the GI50 was 1.56 µM in the assay on HCT-15; 1.93 µM (inactive) with UO-31; 1.91 µM (inactive) with Malme-3M; 2.87 µM (inactive) in the assay on CAKI-1; 2.1 µM (inactive) with SK-MEL-5; 6.61 µM (inactive) with NCI-H226. For the same compound, the GI50 with KM-20L2 was 3.07 µM (inactive); in the assay on SK-MEL-28, 1.76 µM (inactive); with SF-295, 1.84 µM (inactive); with A549, 3.1 µM (inactive); in the assay with HOP-62, 20.1 µM (inactive); with SNB-19, 5.26 µM (inactive). Further, the GI50 in the assay on SK-OV-3 is 4.86 µM (inactive); in the assay on EKVX, 6.05 µM (inactive); in the assay with KM12, 1.9 µM (inactive); in the assay on SN12C, 1.73 µM (inactive); with TK-10 it was 6.07 µM (inactive).
`COC(=O)NC(Nc1ccc(Cl)cc1Cl)(C(F)(F)F)C(F)(F)F`: the GI50 in the assay on HCT-15 was 4.38 µM; in the assay on UO-31, 18 µM (inactive); in the assay with Malme-3M, > 100 µM (inactive); with CAKI-1, 24.5 µM (inactive); in the assay with SK-MEL-5, 26.7 µM (inactive); in the assay on NCI-H226, > 100 µM (inactive). Further, the GI50 in the assay on MDA-N is 34.7 µM (inactive); in the assay on SK-MEL-28, > 100 µM (inactive); in the assay with HCC 2998, 45.7 µM (inactive); with SF-295, > 100 µM (inactive); in the assay with A549, 38.4 µM (inactive); in the assay with MDA-MB-435, 25.1 µM (inactive). For the same compound, the GI50 in the assay on HOP-62 is > 100 µM (inactive); in the assay with SNB-19, > 100 µM (inactive); in the assay with SK-OV-3, 73.6 µM (inactive); with EKVX, 48.9 µM (inactive); in the assay with KM12, 14 µM (inactive); in the assay on SN12C, 80.4 µM (inactive). The GI50 in the assay with TK-10 is 92.7 µM (inactive).
In the case of `Nc1nc(=O)c2cc(NCc3ccc(C(=O)NC(CCC(=O)O)C(=O)O)cc3)ccc2[nH]1` (stereo unspecified), the GI50 in the assay with HCT-15 was greater than 100 µM; in the assay on UO-31, 15.1 µM (inactive); in the assay on Malme-3M, > 100 µM (inactive); with CAKI-1, 34.4 µM (inactive); in the assay with SK-MEL-5 it was > 100 µM (inactive); with NCI-H226 it was > 100 µM (inactive). Moreover, the GI50 is > 100 µM (inactive) with MDA-N; > 100 µM (inactive) in the assay on SK-MEL-28; 39.8 µM (inactive) with HCC 2998; 61.8 µM (inactive) in the assay with SF-295; 80.7 µM (inactive) in the assay on A549; > 100 µM (inactive) in the assay on MDA-MB-435. Besides, the GI50 was > 100 µM (inactive) in the assay on HOP-62; > 100 µM (inactive) in the assay with SNB-19; > 100 µM (inactive) in the assay with SK-OV-3; > 100 µM (inactive) in the assay on EKVX; > 100 µM (inactive) in the assay on KM12; 85.5 µM (inactive) in the assay on SN12C. Moreover, the GI50 with TK-10 is > 100 µM (inactive).
`OC(C#Cc1ccccc1)(c1ccccc1)c1ccccc1`: the GI50 in the assay on HCT-15 was 39.5 µM; with UO-31 it was 40.8 µM (inactive); with Malme-3M, 24.2 µM (inactive); in the assay with CAKI-1, 22.4 µM (inactive); with SK-MEL-5 it was 19 µM (inactive); with NCI-H226 it was 26.2 µM (inactive). Moreover, the GI50 is 23.4 µM (inactive) with MDA-N; 51.1 µM (inactive) in the assay with SK-MEL-28; 50.6 µM (inactive) with HCC 2998; 30.3 µM (inactive) with SF-295; 21.2 µM (inactive) in the assay with A549; 24.3 µM (inactive) in the assay on MDA-MB-435. Moreover, the GI50 is > 100 µM (inactive) in the assay with HOP-62; 70.6 µM (inactive) with SNB-19; > 100 µM (inactive) in the assay on SK-OV-3; 23.8 µM (inactive) in the assay on EKVX; 28 µM (inactive) in the assay on KM12; 69.8 µM (inactive) in the assay with SN12C. Moreover, the GI50 with TK-10 was 31 µM (inactive).
For the compound `CC1CCC(=O)C(C(=O)CC2CC(=O)NC(=O)C2)C1` (stereo unspecified), the GI50 was greater than 100 µM in the assay with HCT-15; > 100 µM (inactive) with UO-31; > 100 µM (inactive) with Malme-3M; > 100 µM (inactive) with CAKI-1; > 100 µM (inactive) in the assay with SK-MEL-5; > 100 µM (inactive) in the assay with NCI-H226. In addition, the GI50 in the assay with MDA-N, in the assay with SK-MEL-28, with HCC 2998, with SF-295, with A549 and in the assay with MDA-MB-435 was > 100 µM (inactive) throughout. Besides, the GI50 in the assay on HOP-62, with SNB-19, with SK-OV-3, with EKVX, in the assay with KM12 and in the assay on SN12C was > 100 µM (inactive) throughout. In addition, in the assay with TK-10, the GI50 was > 100 µM (inactive).
In the case of `O=C(COC(c1ccc(F)cc1)c1ccc(F)cc1)N1CCN(CCCc2ccccc2)CC1`, the GI50 with HCT-15 is 3.75 µM; in the assay with UO-31, 1.7 µM (inactive); in the assay with Malme-3M, 4.68 µM (inactive); in the assay with CAKI-1, 2.05 µM (inactive); in the assay on SK-MEL-5, 2.65 µM (inactive); in the assay with NCI-H226, 3.01 µM (inactive). The GI50 in the assay on MDA-N is 3.74 µM (inactive); in the assay on SK-MEL-28, 15.6 µM (inactive); in the assay on HCC 2998 it was 3.59 µM (inactive); in the assay on SF-295, 4.04 µM (inactive); in the assay with A549, 3.93 µM (inactive); in the assay on MDA-MB-435, 3.67 µM (inactive). For the same compound, the GI50 with HOP-62 is 6.52 µM (inactive); in the assay on SNB-19 it was 4.22 µM (inactive); in the assay with SK-OV-3, 6.97 µM (inactive); in the assay with EKVX it was 4.44 µM (inactive); in the assay with KM12 it was 4.06 µM (inactive); in the assay with SN12C it was 3.01 µM (inactive). Further, the GI50 in the assay on TK-10 is 5.35 µM (inactive).
